In publication PMC12420206, “The hypusine pathway in Ixodes ricinus: molecular cloning and validation of deoxyhypusine synthase as a novel target for drug discovery to treat and prevent vector borne diseases” (Frontiers in Cellular and Infection Microbiology, 2025):

Molecular target: T1, DHS (deoxyhypusine synthase) from Ixodes ricinus (Ixodes ricinus, UniProt A0A0K8RJK0)
T1 construct: cDNA from salivary gland RNA; pET-28a(+) N-terminal His tag/thrombin/T7 tag, removal not mentioned; E. coli BL21(DE3), Ni-NTA native purification
T1 sequence (A0A0K8RJK0 1-365): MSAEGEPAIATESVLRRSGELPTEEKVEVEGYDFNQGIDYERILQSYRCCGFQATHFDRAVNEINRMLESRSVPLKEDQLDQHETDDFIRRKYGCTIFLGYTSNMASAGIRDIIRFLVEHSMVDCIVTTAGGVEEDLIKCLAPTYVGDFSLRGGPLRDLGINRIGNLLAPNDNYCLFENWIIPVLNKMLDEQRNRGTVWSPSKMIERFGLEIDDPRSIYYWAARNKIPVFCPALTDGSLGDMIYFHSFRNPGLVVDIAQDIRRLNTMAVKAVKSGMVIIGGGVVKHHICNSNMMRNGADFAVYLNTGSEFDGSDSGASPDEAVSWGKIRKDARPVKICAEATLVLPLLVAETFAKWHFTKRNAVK
Assay: DHS activity assay, GC/MS detection of deoxyhypusine
Assay type: biochemical
Settings: 2.1 mM spermidine, co-substrate human eIF5A precursor 40 μg, 3 mM NAD, glycine NaOH buffer, 37 °C, 1 h; specific activity only

## NCCCCNCCCN [spermidine]
  DHS activity assay, GC/MS detection of deoxyhypusine: No DHS activity was detected in control experiments without either the precursor protein
